Where “and” joins values, the source holds several entries; their conditions need not be identical. Identical values can stand only once.
Key:
[1] = molecular target: human recombinant serotonin 5-HT2A receptor (Homo sapiens, UniProt P28223); assay: 5-HT2A agonist/antagonist functional assay (cytosolic Ca2+ fluorescence, HEK-293 cells); type: cell-based
Source text: To determine for agonist or antagonist activity of compounds of the invention in functional assays, human recombinant serotonin 5-HT2A receptor expressed in human embryonic kidney (HEK-293) cells (Jerman J C, Brough S J, Gager T, Wood M, Coldwell M C, Smart D and Middlemiss D N, Eur J Pharmacol, 414: 23-30, 2001) or human recombinant serotonin 5-HT7 receptor expressed in CHO cells (Adham, et al. J. Pharmacol. Exp. Ther. 287:508-514, 1998) was used. Cells were suspended in DMEM buffer, and distributed in microplates. For the 5-HT2A assay, a cytoplasmic calcium fluorescent indicator which varies proportionally to the free cytosolic Ca^2+ ion concentration was mixed with probenicid in HBSS buffer complemented with 20 mM Hepes (pH 7.4), added into each well and equilibrated with the cells for 30 min. at 37° C. followed by 30 min. at 22° C. For the 5-HT7 assay, the reaction product was cAMP, detected by HTRF.
To measure 5-HT2A agonist effects, compounds of the invention, reference agonist or HBSS buffer (basal control) was added to the cells and changes in fluorescence intensity were measured using a microplate reader.
The standard reference antagonist was ketanserin (5-HT2A) or mesulergine (5-HT7), which was tested in each experiment at several concentrations to generate a concentration-response curve from which its IC50 value was calculated. […]

[2] = test system: rat mixed cortical cultures; assay: Neurite outgrowth in rat mixed cortical cultures; type: cell-based; settings: 50 nM, 48 h, vs vehicle
Description: Cortical mixed cultures are prepared from E18 Wistar rat embryos. The cortices are dissected out and the tissue was cut to small pieces. The cells are separated by 15-min. incubation with DNase and papain. The cells are collected by centrifugation (1500 rpm, 5 min.). The tissue is triturated with a pipette and the cells are plated using the micro-islet protocol (20 000 cells in […] medium) on poly-L-lysine coated 48 wells, in MEM supplemented with 2 mM glutamine, […] gentamicin, 10% heat-inactivated fetal bovine serum (FBS-HI) and 10% heat-inactivated horse serum (HS-HI). After the cells had attached to the well, 250 μl medium is added to the wells. […] BDNF levels in the conditioned media are determined with a BDNF ELISA using the manufacturers (Promega, BDNF Emax® ImmunoAssay System, catalog number: G7610) instructions.
The cultures are fixed with 4% formaldehyde in 0.01 M PBS for 30 min. and washed once with PBS. […] The immunopositive cells are visualized by a fluorescence microscope equipped with appropriate filter set, and documented by a high resolution image capturing. The number of cells per field (4 field per well) are counted, and the neurite outgrowth was quantified using Image Pro Plus software. […]
Compounds of the invention were evaluated on their effect on neurite outgrowth in rat mixed neuronal cultures. […]

histamine receptor H1 = histamine receptor H1 (Homo sapiens, UniProt P35367); assay: Inhibition of binding of a ligand (Pyrilamine) to histamine receptor H1; settings: as compared to the unsubstituted vinyl counterpart (106 vs compound 415; 85 vs compound 95)
Chain of histamine receptor H1 (P35367 whole entry): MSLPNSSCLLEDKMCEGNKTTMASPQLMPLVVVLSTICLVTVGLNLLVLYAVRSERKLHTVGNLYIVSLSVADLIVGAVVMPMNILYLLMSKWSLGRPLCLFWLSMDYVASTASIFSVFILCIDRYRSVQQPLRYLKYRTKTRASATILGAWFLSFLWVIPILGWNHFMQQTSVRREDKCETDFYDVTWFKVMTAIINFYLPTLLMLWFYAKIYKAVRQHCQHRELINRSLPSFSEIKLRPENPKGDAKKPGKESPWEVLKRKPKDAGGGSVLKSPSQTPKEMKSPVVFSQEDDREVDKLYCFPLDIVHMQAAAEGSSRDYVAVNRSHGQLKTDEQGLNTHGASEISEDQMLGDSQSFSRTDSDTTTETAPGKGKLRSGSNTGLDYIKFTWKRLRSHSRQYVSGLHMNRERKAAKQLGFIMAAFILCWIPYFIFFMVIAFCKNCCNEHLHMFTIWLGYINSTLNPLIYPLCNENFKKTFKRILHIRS
Description: The number and extent of undesirable side effects increases with increasing affinity for the H1 receptor Thus, in one aspect, compounds of the formulae herein display reduced, low or no affinity to histamine receptor H1. […] Inhibition of binding of a ligand to H1 for all variations detailed herein is determined by a suitable assay known in the art such as the assay described herein. […] In one variation, compounds of the formulae herein inhibit binding of a ligand to H1 by between about 50% to about 80%. […] In one variation, compounds of the formulae herein inhibit binding of Pyrilamine to H1 as determined in the assay described herein. In a further variation, percent inhibition of binding to H1 is measured by assays detailed herein.
The binding properties of compounds disclosed herein to a panel of aminergic G protein-coupled receptors including adrenergic receptors, dopamine receptors, serotonin receptors, histamine receptors and an imidazoline receptor may be determined. Binding properties may be assessed by methods known in the art, such as competitive binding assays. In one variation, compounds are assessed by the binding assays detailed herein. […]
In one aspect, DDT compounds display low affinity to histamine receptor H1. […] Inhibition of binding of a ligand to H1 for all variations detailed herein is determined by a suitable assay known in the art such as the assay described herein. […]

Chain of human recombinant serotonin 5-HT2A receptor (P28223 whole entry): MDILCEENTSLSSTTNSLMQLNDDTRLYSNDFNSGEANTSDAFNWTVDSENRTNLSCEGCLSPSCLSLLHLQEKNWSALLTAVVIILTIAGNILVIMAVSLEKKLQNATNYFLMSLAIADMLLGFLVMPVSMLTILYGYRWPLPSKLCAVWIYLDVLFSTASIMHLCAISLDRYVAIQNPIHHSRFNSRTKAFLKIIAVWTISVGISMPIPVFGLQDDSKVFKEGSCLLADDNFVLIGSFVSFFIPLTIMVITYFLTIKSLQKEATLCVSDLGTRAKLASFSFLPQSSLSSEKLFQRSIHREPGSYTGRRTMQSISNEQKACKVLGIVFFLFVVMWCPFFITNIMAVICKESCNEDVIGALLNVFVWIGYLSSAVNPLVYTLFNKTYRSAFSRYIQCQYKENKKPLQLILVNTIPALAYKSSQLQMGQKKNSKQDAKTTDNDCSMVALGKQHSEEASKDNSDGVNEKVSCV

**Q.** `C/C(=C\n1c2c(c3cc(Cl)ccc31)CN(C)CC2)c1ccc(F)cc1` [Compound 83, (E)-8-chloro-5-(2-(4-fluorophenyl)prop-1-enyl)-2,3,4,5-tetrahydro-2-methyl-1H-pyrido[4,3-b]indole] was tested. Which EC50 [1] did it give?
**A.** 3.1 µM

**Q.** And the IC50 ([1]; vs 3 nM 5-HT)?
**A.** 0.97 µM and > 1 µM

**Q.** And the “Mean Process+Branch Number (number of branched processes)” value [2]?
**A.** significantly increased

**Q.** With `C/C(=C\n1c2c(c3cc(Cl)ccc31)CN(C)CC2)c1ccccc1` [compound 106, (E)-8-chloro-2,3,4,5-tetrahydro-2-methyl-5-(2-phenylprop-1-enyl)-1H-pyrido[4,3-b]indole] as the compound, how does the “binding affinity to H1” value (histamine receptor H1) read?
**A.** lower binding affinity to H1
